The record followed here is PMC6010085, “Inhibition of protein tyrosine phosphatase (PTP1B) and α-glucosidase by geranylated flavonoids from Paulownia tomentosa” (Journal of Enzyme Inhibition and Medicinal Chemistry, 2017).

“Also recorded” adds a separate entry of the source. Read-outs that look alike come from different tables or passages of the source.

In assay [1] the target is T1, recombinant human protein tyrosine phosphate 1B (PTP1B, EC 3. 1. 3. 48) (Homo sapiens, UniProt P18031).
T1 sequence (P18031 1-435): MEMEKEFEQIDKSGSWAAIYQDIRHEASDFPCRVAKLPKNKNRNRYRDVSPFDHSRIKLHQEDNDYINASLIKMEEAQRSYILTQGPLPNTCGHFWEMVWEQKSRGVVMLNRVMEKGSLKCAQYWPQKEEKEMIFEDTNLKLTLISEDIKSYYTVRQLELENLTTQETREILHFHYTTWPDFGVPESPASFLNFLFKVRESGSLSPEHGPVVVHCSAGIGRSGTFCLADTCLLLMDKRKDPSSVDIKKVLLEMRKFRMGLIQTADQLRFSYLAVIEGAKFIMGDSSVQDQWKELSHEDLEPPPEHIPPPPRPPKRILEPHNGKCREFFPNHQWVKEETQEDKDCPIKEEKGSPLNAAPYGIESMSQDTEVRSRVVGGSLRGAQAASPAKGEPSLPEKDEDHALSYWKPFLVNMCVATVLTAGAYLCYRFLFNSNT
Put plainly: biochemical. Details: Vmax: unit not given here. The class given is biochemical. The settings on record: for PTP1B type of inhibition: Lineweaver–Burk / secondary plots; for Vmax / Kik/Kiv: pNPP; for Kik/Kiv: Yang's method. Here is the method:
The PTP1B inhibitory assay was carried out using a slight modification to literature reported method. p-nitrophenyl phosphate (pNPP) was used as a substrate for the measurement of enzyme activity. Buffer solution consisted of 25 mM Tris–HCl (pH 7.5), 2 mM β-mercaptoethanol, 1 mM (ethylenediaminetetraacetic acid) EDTA, and 1 mM dithiothreitol (DTT). The assay was performed by adding 10 μL test compound solution to 20 μL of enzyme (1 μg/ml), and then mixing with 40 μL of 4 mM pNPP in 130 μL of the given buffer using 96 well plate at 37 °C for 10 min. […] Lineweaver–Burk and Dixon plots methods were used to determine kinetic parameters. Sigma Plot (SPCC Inc., Chicago, IL) was used to calculate these parameters.
(§1) Lineweaver–Burk plots were used for the analysis of enzyme’s inhibitory kinetics, caused by the tested bioactive compounds, and its comparison was performed with the data collected in the absence of inhibitors. Steady-state rates were determined at different inhibitor concentrations and at changing concentrations of substrate, then enzyme inhibition mechanism and related kinetic parameters were determined. Where applicable, KI and KIS, the two inhibition constants, when inhibitor binds with either free enzyme or the complex of enzyme–substrate, were derived from secondary plots of the slopes of the straight lines and vertical intercept (1/V^appmax), versus inhibitors concentrations. Equations (1)–(3) are the representatives equations for derivation of KI and KIS, respectively.
(§2) To determine enzyme inhibition parameters, an experiment was performed having substrate concentrations range (pNPP; 0.4–1.6 mM, pNPG; 0.075–0.3 mM), and different concentrations of tested compound, as indicated. To find out each curve parameter, a nonlinear regression program was used for data analysis using sigma Plot. Similarly Km and Vmax were derived from Lineweaver–Burk plots. Kik and Kiv rate constants were calculated according to Equations (4) and (5) proposed by Yang’s method. While Excel was used for linear regression analysis. (4) Km=Km,0×(1+[I]/Kik) (5) Vm=[…]
First of all, the individual isolated constituents (1–8) from P. tomentosa fruits were tested in an in vitro PTP1B inhibition assay, using recombinant human protein tyrosine […] 1B (EC 3. 1. 3. 48)^1.

The target in assay [2] is α-glucosidase (EC 3.2.1.20. from Baker's Yeast) (Saccharomyces cerevisiae, UniProt P53341). The assay is described as follows: α-Glucosidase enzymatic assay (pNPG hydrolysis) and kinetic analysis. The settings on record: for α-Glucosidase type of inhibition: Lineweaver–Burk and Dixon plots; for Vmax / Kik/Kiv: α-glucosidase, pNPG; for Kik/Kiv: Yang's method. The class given is biochemical. On the procedure:
The α-glucosidase inhibitory activity was measured using reported experimental method with slight modifications. Phosphate buffer [50 mM potassium phosphate (pH 6.8)] was used for the whole assay. p-nitrophenyl-α-D-glucopyranoside (pNPG) was used as substrate, whose concentration 1.2 mM was prepared in phosphate buffer. Stock solution of α-glucosidase (EC 3.2.1.20. from Baker’s Yeast) containing 0.45 units of enzyme was also prepared in phosphate buffer. DMSO was used as a solvent for dissolving the test compounds, which were then diluted to their respective concentrations. Enzymatic assay was performed by mixing 40 μl of substrate (final concentration 0.15 mM) with 10 μl of inhibitors/vehicle, 130 μl phosphate buffer and 20 μl of enzyme in 96 well plate. As a result of the catalytic reaction, p-nitrophenol was produced as a reaction product which was subsequently measured using spectra max M3 multi-mode microplate reader (Molecular Devices) at 37 °C, at 405 nm for 15 min. […] The experiments were performed in triplicate.
as §1, §2

The mark [3] stands for this setting: PTP1B, secondary plots, read-out: KI (inhibitor binds with free enzyme).
Where [4] appears, read: from Dixon plots, read-out: PTP1B Ki (inhibition constant).
The mark [5] stands for this setting: pNPP substrate, triplicate, read-out: PTP1B IC50.

α-glucosidase (EC 3.2.1.20. from Baker's Yeast), sequence (P53341 whole entry): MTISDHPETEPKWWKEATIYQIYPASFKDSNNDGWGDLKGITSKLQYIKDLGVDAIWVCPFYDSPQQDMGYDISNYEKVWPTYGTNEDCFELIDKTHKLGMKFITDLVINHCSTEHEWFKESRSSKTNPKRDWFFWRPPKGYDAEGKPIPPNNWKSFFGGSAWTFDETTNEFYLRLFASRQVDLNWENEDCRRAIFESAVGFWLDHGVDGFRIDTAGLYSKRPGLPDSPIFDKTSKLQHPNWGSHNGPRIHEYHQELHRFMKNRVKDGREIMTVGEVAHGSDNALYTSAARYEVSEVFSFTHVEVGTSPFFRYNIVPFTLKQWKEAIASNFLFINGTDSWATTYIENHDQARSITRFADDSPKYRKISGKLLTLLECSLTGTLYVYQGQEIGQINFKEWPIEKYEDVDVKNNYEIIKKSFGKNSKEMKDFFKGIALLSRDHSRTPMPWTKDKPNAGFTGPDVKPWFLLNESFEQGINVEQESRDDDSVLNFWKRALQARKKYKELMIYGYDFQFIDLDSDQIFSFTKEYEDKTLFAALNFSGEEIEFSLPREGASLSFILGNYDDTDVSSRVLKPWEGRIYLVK

Regarding `CC(C)=CCC/C(C)=C/Cc1c(O)cc2c(c1O)C(=O)C[C@@H](c1ccc(O)cc1)O2` [Compound 1, mimulone], the IC50 in assay [1] was 1.9 ± 0.1 µM. The inhibition constant Ki in assay [1] (KI (inhibitor binds with free enzyme), PTP1B, secondary plots, text without unit) worked out at 0.4 µM; in assay [1] (PTP1B Ki (inhibition constant), from Dixon plots) it was 0.8 ± 0.1 µM. For the same compound, the “PTP1B type of inhibition” value in assay [1] is listed as “Mixed TypeⅠ; also recorded: mixed type Ι; also recorded: Mixed Type I”. The Vmax in assay [1] (PTP1B, [I] 0.78 µM) stood at 0.012; in assay [1] (PTP1B, [I] 1.56 µM) it was 0.009; in assay [1] (PTP1B, [I] 3.13 µM), 0.007; in assay [2] ([I] 12.5 µM), 0.117; in assay [2] ([I] 25 µM), 0.082; in assay [2] ([I] 50 µM), 0.054. Besides, the Kik/Kiv was found to be 2.660 in assay [1] (PTP1B, [I] 0.78 µM); 3.335 in assay [1] (PTP1B, [I] 1.56 µM); 3.694 in assay [1] (PTP1B, [I] 3.13 µM); 12.42 in assay [2] ([I] 12.5 µM); 19.34 in assay [2] ([I] 25 µM); 27.48 in assay [2] ([I] 50 µM). In addition, the “KIS (inhibitor binds with enzyme-substrate complex)” value in assay [1] (PTP1B, secondary plots) was 2.2 ± 0.1 µM; in assay [1] (PTP1B, secondary plots, text without unit), 2.2. Further, the “reversibility of PTP1B inhibition” value in assay [1] (initial velocity versus enzyme concentration at different inhibitor concentrations) is on record as “reversible inhibitor”. For the same compound, the “α-Glucosidase type of inhibition” value in assay [2] was “Noncompetitive”.

As to `COc1cc([C@@H]2CC(=O)c3c(cc(O)c(C/C=C(\C)CCC=C(C)C)c3O)O2)ccc1O` [Compound 2, 3′-O-methyldiplacone], the “PTP1B type of inhibition” value in assay [1] is “Mixed TypeⅠ; also recorded: Mixed Type I”. For the same compound, in assay [1] (PTP1B, secondary plots), the “KIS (inhibitor binds with enzyme-substrate complex)” value amounted to 3.7 ± 0.2 µM. In addition, the Ki in assay [1] (setting [3]) was found to be 2.6 ± 0.1 µM; in assay [1] (setting [4]), 3.2 ± 0.2 µM. Further, in assay [1] (setting [5]), the IC50 was found to be 3.9 ± 0.3 µM. Further, the “α-Glucosidase type of inhibition” value in assay [2] is recorded as “Noncompetitive”.

On to `COc1ccc([C@@H]2CC(=O)c3c(cc(O)c(C/C=C(\C)CCC=C(C)C)c3O)O2)cc1O` [Compound 3, 4′-O-methyldiplacone], for which the “PTP1B type of inhibition” value in assay [1] was “Mixed TypeⅠ; also recorded: Mixed Type I”. In addition, in assay [1] (PTP1B, secondary plots), the “KIS (inhibitor binds with enzyme-substrate complex)” value amounted to 10.1 ± 0.4 µM. The Ki in assay [1] (setting [3]) amounted to 5.7 ± 0.3 µM; in assay [1] (setting [4]), 8.1 ± 0.6 µM. Further, the IC50 in assay [1] (setting [5]) was determined as 7.8 ± 0.6 µM. Moreover, the “α-Glucosidase type of inhibition” value in assay [2] is “Noncompetitive”.

`COc1c(O)cc(C2CC(=O)c3c(cc(O)c(C/C=C(\C)CCC=C(C)C)c3O)O2)cc1O` (stereo not drawn) [Compound 4, 6-geranyl-3′,5,5′,7-tetrahydroxy-4′-methoxyflavanone]: in assay [1], the “PTP1B type of inhibition” value was “Mixed TypeⅠ; also recorded: Mixed Type I”. Also, the “KIS (inhibitor binds with enzyme-substrate complex)” value in assay [1] (PTP1B, secondary plots) was 11.2 ± 0.4 µM. Further, the Ki in assay [1] (setting [3]) turned out to be 5.5 ± 0.3 µM; in assay [1] (setting [4]) it was 6.1 ± 0.5 µM. Also, the half-maximal inhibitory concentration (IC50) in assay [1] (setting [5]) is 5.9 ± 0.4 µM. Moreover, the “α-Glucosidase type of inhibition” value in assay [2] is “Noncompetitive”.

For `COc1cc([C@@H]2CC(=O)c3c(cc(O)c(C/C=C(\C)CCC=C(C)C)c3O)O2)cc(OC)c1O` [Compound 5, 3′-O-Methyl-5′-O-methyldiplacone], the “PTP1B type of inhibition” value in assay [1] is reported as “Mixed TypeⅠ; also recorded: Mixed Type I”. For the same compound, the “KIS (inhibitor binds with enzyme-substrate complex)” value in assay [1] (PTP1B, secondary plots) stood at 4.6 ± 0.2 µM. Also, the inhibition constant (Ki) in assay [1] (setting [3]) was 2.8 ± 0.2 µM; in assay [1] (setting [4]) it was 3.5 ± 0.3 µM. The IC50 in assay [1] (setting [5]) was 3.8 ± 0.3 µM. In addition, in assay [2], the “α-Glucosidase type of inhibition” value is “Noncompetitive”.

As to `COc1cc([C@H]2Oc3cc(O)c(C/C=C(\C)CCC=C(C)C)c(O)c3C(=O)[C@@H]2O)ccc1O` [Compound 6, 3′-O-methyldiplacol], the “PTP1B type of inhibition” value in assay [1] is reported as “Mixed TypeⅠ; also recorded: mixed type Ι; also recorded: Mixed Type I”. For the same compound, in assay [1] (PTP1B, secondary plots), the “KIS (inhibitor binds with enzyme-substrate complex)” value came out at 5.2 ± 0.2 µM. Besides, the Ki in assay [1] (setting [3]) was 3.5 ± 0.2 µM; in assay [1] (setting [4]), 3.8 ± 0.3 µM. For the same compound, the IC50 in assay [1] (setting [5]) worked out at 4.9 ± 0.5 µM. Moreover, in assay [2], the “α-Glucosidase type of inhibition” value was “Noncompetitive”.

`COc1ccc([C@H]2Oc3cc(O)c(C/C=C(\C)CCC=C(C)C)c(O)c3C(=O)[C@@H]2O)cc1O` [Compound 7, 4′-O-methyldiplacol]: the “PTP1B type of inhibition” value in assay [1] is “Mixed TypeⅠ; also recorded: Mixed Type I”. The “KIS (inhibitor binds with enzyme-substrate complex)” value in assay [1] (PTP1B, secondary plots) amounted to 13.7 ± 0.6 µM. The inhibition constant (Ki) in assay [1] (setting [3]) amounted to 6.9 ± 0.4 µM; in assay [1] (setting [4]) it was 7.9 ± 0.4 µM. Further, the half-maximal inhibitory concentration (IC50) in assay [1] (setting [5]) was determined as 8.2 ± 0.6 µM. Besides, in assay [2], the “α-Glucosidase type of inhibition” value was “Noncompetitive”.

`COc1c(O)cc([C@H]2Oc3cc(O)c(C/C=C(\C)CCC=C(C)C)c(O)c3C(=O)[C@@H]2O)cc1O` [Compound 8]: the “PTP1B type of inhibition” value in assay [1] is reported as “Mixed TypeⅠ; also recorded: Mixed Type I”. For the same compound, the “KIS (inhibitor binds with enzyme-substrate complex)” value in assay [1] (PTP1B, secondary plots) is 10.3 ± 0.5 µM. Further, the Ki in assay [1] (setting [3]) worked out at 5.9 ± 0.3 µM; in assay [1] (setting [4]), 6.2 ± 0.4 µM. Further, the half-maximal inhibitory concentration (IC50) in assay [1] (setting [5]) is 6.6 ± 0.5 µM. The “α-Glucosidase type of inhibition” value in assay [2] is given as “Noncompetitive”.

In turn, `[Na+].[Na+].[Na+].[O]=[V]([O-])([O-])[O-]` [NaVO4, reference compound] gave an IC50 in assay [2] (pNPG substrate, triplicate) of over 200 µM.

Usually IC50 stands for the point on the concentration scale where inhibition reaches its midpoint. By Ki is commonly meant the dissociation constant of the complex between target and ligand, obtained from inhibition or displacement.
